This passage reports CC50, EC50 and AC50 results from ChEMBL document CHEMBL1201862, “PubChem BioAssay data set” (2004).

The nature of test [1]: HEp-2 cell cytotoxicity, dose response, cytotoxicity control for RSV inhibitor project, HTS (AID 2410). The format is functional. As to conditions: human respiratory syncytial virus.
Test [2] in a line: inhibitors of intracellular T. cruzi replication, confirmation, NIH3T3 host cells, beta-gal luminescence (AID 2044).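 Also: intracellular parasites grown in NIH/3T3 mouse fibroblasts as host cells; luminescent beta-galactosidase reporter signal from transgenic T. cruzi replicating inside host cells; inhibitors lower the luminescence signal.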 It is filed as functional, cell-based.
Test [3] in a line: cytotoxicity toward NIH3T3 fibroblasts, dose response, counter-screen, cell-based, ATP luminescence, mouse fibroblasts (AID 2010).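 Also: cells exposed to compound for about 90 hours before reading.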 It is filed as functional.
Another test addresses Cytochrome P450 2C19 (Homo sapiens, UniProt P33261). Kind of test: Cytochrome panel assay with activity outcomes. Panel member name: p450-cyp2c19 Compounds with AC50 equal or less than 10 uM are considered active. Conditions: read-out: AC50. It is filed as functional.
In the next test the target is Cytochrome P450 3A4 (Homo sapiens, UniProt P08684).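 Also: CYP3A4 tested as one member of a cytochrome P450 panel screen.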
Cytochrome P450 3A4, sequence (P08684 whole entry): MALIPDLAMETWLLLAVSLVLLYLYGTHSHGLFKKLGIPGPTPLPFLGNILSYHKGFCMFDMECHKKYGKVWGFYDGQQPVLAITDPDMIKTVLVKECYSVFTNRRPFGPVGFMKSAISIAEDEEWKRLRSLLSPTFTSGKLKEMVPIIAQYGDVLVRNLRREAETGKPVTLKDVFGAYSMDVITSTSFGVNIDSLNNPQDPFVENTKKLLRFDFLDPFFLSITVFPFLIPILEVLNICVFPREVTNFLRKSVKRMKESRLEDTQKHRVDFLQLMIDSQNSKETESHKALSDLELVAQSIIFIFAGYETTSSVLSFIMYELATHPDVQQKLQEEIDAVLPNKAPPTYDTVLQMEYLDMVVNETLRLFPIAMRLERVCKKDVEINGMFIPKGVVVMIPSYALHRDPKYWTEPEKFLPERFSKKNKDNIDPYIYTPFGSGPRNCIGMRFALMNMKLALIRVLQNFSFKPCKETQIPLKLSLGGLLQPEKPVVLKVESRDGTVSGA
For the next test, the target named is Cytochrome P450 2C9 (Homo sapiens, UniProt P11712).
Cytochrome P450 2C9, sequence (P11712 whole entry): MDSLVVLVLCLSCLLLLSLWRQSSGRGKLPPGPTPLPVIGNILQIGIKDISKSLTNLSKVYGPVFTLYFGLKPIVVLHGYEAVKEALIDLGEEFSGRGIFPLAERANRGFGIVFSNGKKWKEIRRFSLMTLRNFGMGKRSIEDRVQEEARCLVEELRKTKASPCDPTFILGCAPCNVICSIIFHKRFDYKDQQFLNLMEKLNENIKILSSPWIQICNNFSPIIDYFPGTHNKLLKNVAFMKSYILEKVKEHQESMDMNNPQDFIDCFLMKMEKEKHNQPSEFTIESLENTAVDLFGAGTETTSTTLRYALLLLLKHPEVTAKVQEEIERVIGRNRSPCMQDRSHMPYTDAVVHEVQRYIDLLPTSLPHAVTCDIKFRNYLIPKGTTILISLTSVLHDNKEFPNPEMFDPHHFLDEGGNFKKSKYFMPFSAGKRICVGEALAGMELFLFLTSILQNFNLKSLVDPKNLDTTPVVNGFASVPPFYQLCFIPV
Test [4] in a line: NIH-3T3 fibroblast cytotoxicity, dose response, cytotoxicity control, cell-based, fluorescence, Alamar Blue, secondary assay (AID 2327).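 Also: NIH-3T3 mouse fibroblasts cultured with fluconazole at 8 µg/mL.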 It is filed as functional. (In general: The colour change of resazurin is a common sign of viable cells or microbes.)
A short description of test [5]: C. albicans growth with fluconazole, confirmation, fluorescence, retest (AID 2467). It is filed as functional, cell-based.
Test [6] addresses T1, Heat shock factor protein 1 (Mus musculus, UniProt P38532).
T1 sequence (P38532 whole entry): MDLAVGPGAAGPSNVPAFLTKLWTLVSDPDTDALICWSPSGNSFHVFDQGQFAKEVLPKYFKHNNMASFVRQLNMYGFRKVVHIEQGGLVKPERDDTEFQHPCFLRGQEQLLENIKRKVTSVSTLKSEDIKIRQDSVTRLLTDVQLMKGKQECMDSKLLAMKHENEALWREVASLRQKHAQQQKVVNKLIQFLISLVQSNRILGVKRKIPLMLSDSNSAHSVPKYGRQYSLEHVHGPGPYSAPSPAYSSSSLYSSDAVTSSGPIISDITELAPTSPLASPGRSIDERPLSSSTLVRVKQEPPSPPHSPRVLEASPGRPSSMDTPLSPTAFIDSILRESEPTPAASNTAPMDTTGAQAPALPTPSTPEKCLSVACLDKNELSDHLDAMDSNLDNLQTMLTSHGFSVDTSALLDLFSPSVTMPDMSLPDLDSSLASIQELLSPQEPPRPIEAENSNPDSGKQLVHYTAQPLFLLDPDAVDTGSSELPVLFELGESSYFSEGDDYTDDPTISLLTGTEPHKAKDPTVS
Kind of test: inhibition of MG132-induced HSE-luciferase signal, confirmation, cell-based, NIH3T3, luminescence, dose retest (AID 2382).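 Also: NIH3T3 fibroblasts with HSF1-driven luciferase reporter stressed by proteasome inhibitor MG132; luminescence from HSF1-driven luciferase expression after 8 hours of MG132 stress.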 It is filed as functional.

A further test has as its system INS1. Kind of test: beta cell apoptosis inhibitors, cytokine rescue, dose response, luminescence, retest (AID 449756).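 Also: cell death triggered by IL-1 beta plus TNF-alpha plus IFN-gamma mixture; protective hits raise ATP signal compared with cytokine alone wells.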 The format is functional, cell-based. As to conditions: Rattus norvegicus.
Test [7] is described as follows: Luminescence Cell-Based Dose Confirmation HTS to Identify Activators of 5'UTR Stem-Loop Driven Alpha-Synuclein mRNA Translation in H4 Neuroglioblastoma Cells. [Related pubchem assays: 1829 (Project Summary), 1814 (Primary HTS)]. The format is functional.
Test [8] is described as follows: Luminescence Cell-Based Dose Response HTS to Identify Activators of Luciferase Translation or Activity in H4 […] Cells. [Related pubchem assays: 1829 (Project Summary), 1814 (Primary HTS)]. The format is functional.
The next test deals with H4. Kind of test: Luminescence Cell-Based Dose Response HTS to Identify Activators of 5'UTR Stem-Loop Driven Prion Protein mRNA Translation in H4 Neuroglioblastoma Cells. [Related pubchem assays: 1829 (Project Summary), 1814 (Primary HTS)]. It is filed as functional. Conditions: Homo sapiens.
The target in a further test is T2, Cytochrome P450 1A2 (Homo sapiens, UniProt P05177).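 Also: PubChem cytochrome P450 panel assay, CYP1A2 panel member.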
T2 sequence (P05177 whole entry): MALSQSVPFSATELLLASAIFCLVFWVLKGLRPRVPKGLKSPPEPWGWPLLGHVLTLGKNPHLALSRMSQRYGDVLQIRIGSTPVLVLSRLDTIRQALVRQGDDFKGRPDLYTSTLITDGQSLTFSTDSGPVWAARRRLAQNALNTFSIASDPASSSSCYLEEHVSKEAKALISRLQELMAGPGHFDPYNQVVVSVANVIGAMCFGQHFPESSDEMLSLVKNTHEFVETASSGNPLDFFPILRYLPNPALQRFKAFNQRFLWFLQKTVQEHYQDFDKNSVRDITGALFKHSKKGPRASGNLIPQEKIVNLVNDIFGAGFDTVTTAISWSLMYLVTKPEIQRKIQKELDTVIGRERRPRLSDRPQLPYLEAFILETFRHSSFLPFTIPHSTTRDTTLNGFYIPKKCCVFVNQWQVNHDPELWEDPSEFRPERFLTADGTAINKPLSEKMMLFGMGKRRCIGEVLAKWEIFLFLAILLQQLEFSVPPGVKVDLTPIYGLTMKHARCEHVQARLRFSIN

The term CC50 denotes the concentration that lowers cell viability or growth by half. Usually EC50 stands for the midpoint of the concentration-response curve. The term AC50 denotes the concentration giving half of the maximal activity seen.

Calls of active or inactive are those of the source.

Cytochrome P450 2C19, sequence (P33261 whole entry): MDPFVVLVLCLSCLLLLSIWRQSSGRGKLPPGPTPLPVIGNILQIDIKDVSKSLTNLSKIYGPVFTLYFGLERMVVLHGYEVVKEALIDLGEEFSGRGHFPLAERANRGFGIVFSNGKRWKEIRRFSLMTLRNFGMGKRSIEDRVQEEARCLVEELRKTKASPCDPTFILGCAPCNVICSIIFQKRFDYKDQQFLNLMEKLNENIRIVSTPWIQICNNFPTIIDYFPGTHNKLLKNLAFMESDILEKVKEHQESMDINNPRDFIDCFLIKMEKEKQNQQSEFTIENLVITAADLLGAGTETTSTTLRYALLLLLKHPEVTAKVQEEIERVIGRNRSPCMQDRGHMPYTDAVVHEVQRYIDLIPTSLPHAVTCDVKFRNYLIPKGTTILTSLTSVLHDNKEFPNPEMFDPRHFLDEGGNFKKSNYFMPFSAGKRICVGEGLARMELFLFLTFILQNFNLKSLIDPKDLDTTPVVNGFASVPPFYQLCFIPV

For `Cc1cc(Cl)ccc1Oc1cccc(C(=O)/C(C#N)=C/N(C)C)c1`, in test [1], the CC50 was 29.1 µM (active).
On the same count and under the same terms, the figure for `C=C1C[C@H]2[C@@H]3C=C(C)C4=CC(=O)CC[C@]4(C)[C@H]3CC[C@]2(C)[C@@]1(OC(C)=O)C(C)=O` [MELENGESTROL ACETATE] is 26.5 µM (active).
`COc1c(C)cc(Br)cc1C(=O)Nc1ccccc1N1CCN(C(=O)c2ccccc2)CC1`: the CC50 in [1] was 31.5 µM (active). The EC50 was 2.52 µM (active) in test [2] and > 60 µM (not active) in test [3].
Regarding `CCSc1c(C(=O)NC)ccc2c1C(=O)c1ccccc1C2=O`, the AC50 on Cytochrome P450 2C19 is 28.2 µM (inconclusive); at Cytochrome P450 3A4 it was 12.6 µM (inconclusive); on Cytochrome P450 2C9, 10 µM (inconclusive).
Turning to `COc1cc(C2C(C#N)=C(N)N(c3ccc(F)cc3)C3=C2S(=O)(=O)CC3)ccc1O` (stereo unspecified), the figures for the EC50 in test [4] and in test [5] were > 160 µM (inactive) and > 38 µM (not active), respectively.
On to `C[C@]12CC[C@@H]3c4ccc(O)cc4CC[C@H]3[C@@H]1CCC2=O` [ESTRONE], for which the CC50 in test [1] is 33 µM (active).
As to `Fc1ccc(Cn2nnnc2CN2CCC(n3nnc4cc(C(F)(F)F)ccc43)CC2)cc1`, the CC50 in test [1] is 15 µM (active).
Consider `CCCn1c(CC)nc([N+](=O)[O-])c1Sc1ccc(F)cc1`, for which the half-maximal effective concentration (EC50) was 16.3 µM (active) in test [4] and > 38 µM (not active) in [5].
In the case of `CC(C)c1nc(SCc2c(F)cccc2Cl)c2c(=O)n(C)c(=O)n(C)c2n1`, the CC50 in test [1] is 7.44 µM (active). Further, the concentration giving a half-maximal response (EC50) in test [6] is reported as > 195 µM (not active).
In the case of `Cc1cccc(-c2nc(C#N)c(NCc3ccco3)o2)c1`, the CC50 in [1] was 42.9 µM (active).
On to `COC(=O)CSC1=C(C#N)C(c2cccc(F)c2)CC(=O)N1` (stereo unspecified), for which the AC50 on Cytochrome P450 3A4 is 39.8 µM (inconclusive); on Cytochrome P450 2C9, 0.0282 µM (inconclusive).
Consider `CCOC(=O)C1(Cc2cccc(Cl)c2)CCCN(C(=O)c2ccc(COC)s2)C1` (stereo unspecified), for which the AC50 with INS1 is > 260 µM (inactive).
As to `CCOC(=O)CSc1ccc(C(=O)N2CCN(C)CC2)cc1[N+](=O)[O-]`, the results for the EC50 in test [4] and in test [5] were > 160 µM (inactive) and > 38 µM (not active), respectively.
The like results for `O=C(c1cc2c(s1)-c1ccccc1OC2)N1CCC2(CC1)OCCO2` were, in that order, 43.1 µM (active) and 2.9 µM (active).
With `O=NN(CCc1ccncc1)c1ccc(OCc2ccccc2)cc1`, the AC50 in the test with INS1 was 6.05 µM (active).
In the case of `Cc1oc2c(cc(NS(=O)(=O)c3cccs3)c3ccccc32)c1C(=O)OC(C)C`, the CC50 in test [1] was 20.3 µM (active).
Regarding `N#Cc1nc(Cc2ccccc2)oc1NCCc1ccccc1`, in test [1], the CC50 is 28.9 µM (active). The EC50 is 4.71 µM (active) in test [7], 56.9 µM (active) in test [8] and 14.5 µM (active) with H4.
Take `C/C(=N\N=C(/N)SC1CC(=O)N(c2cccc(Cl)c2)C1=O)c1cccs1` (stereo unspecified): the CC50 in [1] is 19.4 µM (active).
Turning to `Cc1ccc(-c2c[n+](CC(=O)N3c4ccccc4Sc4ccccc43)c3n2CCC3)cc1`, the figures for the EC50 in test [4] and in test [5] were > 150 µM (inactive) and 2.77 µM (active), respectively.
As for `COc1cc2c(cc1OC)C(NC(=O)C(F)(F)F)CNC2=O` (stereo unspecified), the AC50 in the test on INS1 was > 260 µM (inconclusive).
For the molecule `O=C(Nc1ccc(C(=O)Nc2ccccc2Cl)cc1)c1cccnc1`, the AC50 with INS1 is 1.06 µM (active).
In the case of `O=c1cc(-c2ccccc2)c2ccc(O)cc2o1`, the 50% effective concentration (EC50) in test [4] was > 160 µM (inconclusive); in test [6] it was 117 µM (active); in test [5], 2.12 µM (active).
With `O=C(CCCl)N(Cc1nc(O)c2ccccc2n1)Cc1cccs1`, the figures for the EC50 in [4] and in test [5] were > 160 µM (inactive) and > 38 µM (not active), respectively.
Turning to `CC(=O)c1cccc(Nc2nc(-c3sc(C)nc3C)cs2)c1`, in test [1], the CC50 is > 50 µM (active).
For the molecule `Oc1ccc(N2CCN(C(S)=NCCc3ccccc3)CC2)cc1`, the EC50 is > 150 µM (inactive) in test [4] and 0.177 µM (active) in test [5].
In the case of `COc1ccc(CCNC(=O)c2ccc3c(c2)N(Cc2ccc(C)cc2)CCS3)cc1OC`, the CC50 in test [1] was 35.9 µM (active).
On to `FC(F)(F)c1cnc(NN=C(S)Nc2ccc(Cl)cc2)c(Cl)c1`, for which the AC50 in the test with INS1 is 3.44 µM (active).
As for `CN1CC2([N+](=O)[O-])CC=C(OCCO)C([N+](=O)[O-])(C1)C2` (stereo unspecified), the values for the EC50 in [4] and in [5] were > 150 µM (inconclusive) and > 38 µM (not active), respectively.
The like results for `CCOc1ccccc1NC(=O)c1cc(S(=O)(=O)N2CCC3(CC2)OCCO3)ccc1F` were, in that order, > 160 µM (inactive) and > 38 µM (not active).
For the molecule `CCN(Cc1ccccc1)C(c1cccs1)c1nnnn1C1CCCCC1` (stereo unspecified), the EC50 is 3.97 µM (active) in test [2] and 16.3 µM (active) in [3]. Besides, the AC50 in the test on INS1 is 9.27 µM (active).
Take `Cn1c(=O)cnc2cnc(Nc3ccccc3)nc21`: the AC50 at Cytochrome P450 2C19 is 7.94 µM (inconclusive); at Cytochrome P450 3A4, 25.1 µM (inconclusive); at Cytochrome P450 2C9 it was 25.1 µM (inconclusive).
With `CSc1nnc(C)c(/C=C/Nc2ccc(Cl)cc2)n1`, in test [1], the CC50 is > 50 µM (active).
Consider `Cc1cc2[nH]c(=O)c(=O)[nH]c2cc1S(=O)(=O)N1CCN(c2ccccc2F)CC1`, for which the EC50 in test [4] is > 150 µM (inactive); in test [5], > 38 µM (not active).
On to `COc1ccc(C(=O)/C=C/c2ccccc2OC)c(OC(=O)c2ccc([N+](=O)[O-])cc2)c1`, for which the CC50 in test [1] is 19.1 µM (active). Moreover, the values for the EC50 (in test [7]; in [8]; in the test with H4) were 17.3 µM (active), 23.8 µM (active) and 54.1 µM (inconclusive), respectively.
On to `Oc1nc(SCc2ccccc2F)nc2ccccc12`, for which the EC50 is > 150 µM (inactive) in [4] and 1.26 µM (active) in test [5].
As for `COc1ccc(-c2cc(C(F)(F)F)n3ncc(C(=O)NCC4CCCO4)c3n2)cc1OC` (stereo unspecified), the AC50 on Cytochrome P450 2C19 was 14.1 µM (inconclusive); on Cytochrome P450 1A2, 5.01 µM (inconclusive); on Cytochrome P450 3A4, 3.55 µM (inconclusive); on Cytochrome P450 2C9, 7.94 µM (inconclusive).
Take `Brc1ccc(-c2ncc3ccccn23)cc1`: in test [1], the CC50 is 29.9 µM (active).
On to `O=C(COC(=O)c1cn(-c2ccccc2)nc1-c1ccccc1)c1cccc([N+](=O)[O-])c1`, for which the AC50 in the test on INS1 is 4.4 µM (active).
Take `CCCCSc1ccc(NC(=O)c2cccnc2)cc1`: the AC50 in the test with INS1 was 8.46 µM (active).
As for `O=C(N/N=C/c1ccc(Sc2nc3ccccc3s2)c([N+](=O)[O-])c1)c1ccccn1`, the AC50 on Cytochrome P450 2C19 is 7.08 µM (inconclusive); at Cytochrome P450 3A4, 3.55 µM (inconclusive); at Cytochrome P450 2C9, 0.00562 µM (inconclusive).
For the molecule `Cc1cccc(Cc2nnc(CCC(=O)N3CCCCC3c3nccs3)o2)c1` (stereo unspecified), the EC50 is > 160 µM (inactive) in test [4] and > 38 µM (not active) in [5].
